According to patent US7964591B2, “Pyridazine derivatives and their use as therapeutic agents” (Novartis Pharma AG, priority 2003, dated 2011):

What follows are molecules tested against T1, stearoyl-CoA desaturase (SCD) (Mus musculus, UniProt P13516) (assay: Stearoyl-CoA desaturase inhibition using mouse liver microsomes (HTS microsomal assay, IC50 follow-up)). Conditions: % SCD enzyme activity remaining at 10 μM test compound.
T1 sequence (P13516 1-355): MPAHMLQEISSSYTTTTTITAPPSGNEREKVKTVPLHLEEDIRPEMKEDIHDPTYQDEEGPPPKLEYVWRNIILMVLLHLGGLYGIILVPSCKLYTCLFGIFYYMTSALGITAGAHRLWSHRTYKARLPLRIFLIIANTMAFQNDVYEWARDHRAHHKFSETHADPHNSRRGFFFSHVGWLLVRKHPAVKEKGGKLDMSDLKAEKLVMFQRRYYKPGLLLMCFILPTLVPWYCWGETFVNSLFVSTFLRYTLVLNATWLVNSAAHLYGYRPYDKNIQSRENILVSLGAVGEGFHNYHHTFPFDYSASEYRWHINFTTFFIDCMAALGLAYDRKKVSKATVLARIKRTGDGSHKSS
Method: Livers are immediately rinsed with cold 0.9% NaCl solution, weighed and minced with scissors. All procedures are performed at 4° C. unless specified otherwise. Livers are homogenized in a solution (1:3 w/v) containing 0.25 M sucrose, 62 mM potassium phosphate buffer (pH 7.0), 0.15 M KCl, 1.5 mM N-acetyleysteine, 5 mM MgCl2, and 0.1 mM EDTA using 4 strokes of a Potter-Elvehjem tissue homogenizer. The homogenate is centrifuged at 10,400×g for 20 min to eliminate mitochondria and cellular debris. The supernatant is filtered through a 3-layer cheesecloth and centrifuged at 105,000×g for 60 min. The microsomal pellet is gently resuspended in the same homogenization solution with a small glass/teflon homogenizer and stored at −70° C. The absence of mitochondrial contamination is enzymatically assessed. The protein concentration is measured using bovine serum albumin as the standard.
The tubes are vortexed vigorously and after 15 min incubation in a shaking water bath (37° C.), the reactions are stopped and fatty acids are analyzed.
Fatty acids are analyzed as follows: The reaction mixture is saponified with 10% KOH to obtain free fatty acids which are further methylated using BF3 in methanol. […] Fatty acid methyl esters are separated isocratically with acetonitrile/water (95:5 v:v) at a flow rate of 1 mL/min and are identified by comparison with authentic standards.
The compounds are analyzed with an HTS microsomal assay. The activities are defined in terms of % SCD enzyme activity remaining at the selected concentration (e.g., 10 μM) of the test compounds.

Compared with `CC(C)CCNC(=O)c1ccc(N2CCN(C(=O)CC(C)C(F)(F)F)CC2)nn1` (stereo not shown) [6-[4-(4,4,4-TRIFLUORO-3-METHYLBUTYRYL)PIPERAZIN-1-YL]PYRIDAZINE-3-CARBOXYLIC ACID (3-METHYLBUTYL)AMIDE], `CC(=CC(=O)N1CCN(c2ccc(C(=O)NCCC(C)C)nn2)CC1)C(F)(F)F` [6-[4-(4,4,4-TRIFLUORO-3-METHYLBUT-2-ENOYL)PIPERAZIN-1-YL]-PYRIDAZINE-3-CARBOXYLIC ACID (3-METHYLBUTYL)AMIDE] is lower in “Mouse Microsome 10% remaining @ 10 μM” value: 11% for the first, 9% for the second.

Compared with `O=C(NCc1ccc(F)cc1)Nc1ccc(N2CCN(C(=O)c3ccccc3C(F)(F)F)CC2)nn1` [1-(4-FLUOROBENZYL)-3-{6-[4-(2-TRIFLUOROMETHYLBENZOYL)PIPERAZIN-1-YL]-PYRIDAZIN-3-YL}UREA], `O=C(Nc1ccc(F)cc1)Nc1ccc(N2CCN(C(=O)c3ccccc3C(F)(F)F)CC2)nn1` [1-(4-FLUOROPHENYL)-3-{6-[4-(2-TRIFLUOROMETHYLBENZOYL)PIPERAZIN-1-YL]-PYRIDAZIN-3-YL}UREA] is higher in “Mouse Microsome 10% remaining @ 10 μM” value: 6% for the first, 82% for the second.

Compared with `O=C(NCCC1CC1)c1ccc(N2CCN(C(=O)C3(O)CC3)CC2)nn1` [6-[4-(1-HYDROXYCYCLOPROPANECARBONYL)PIPERAZIN-1-YL]PYRIDAZINE-3-CARBOXYLIC ACID (2-CYCLOPROPYLETHYL)AMIDE], `O=C(NCCC1CC1)c1ccc(N2CCN(C(=O)C3CCCCC3)CC2)nn1` [6-(4-CYCLOHEXANECARBONYLPIPERAZIN-1-YL)PYRIDAZINE-3-CARBOXYLIC ACID (2-CYCLOPROPYLETHYL)AMIDE] is lower in “Mouse Microsome 10% remaining @ 10 μM” value: 73% for the first, 22% for the second.

Compared with `O=C(NCC1CC1)c1ccc(N2CCN(C(=O)c3ccccc3C(F)(F)F)CC2)nn1` [6-[4-(2-TRIFLUOROMETHYLBENZOYL)PIPERAZIN-1-YL]PYRIDAZINE-3-CARBOXYLIC ACID CYCLOPROPYLMETHYLAMIDE], `O=C(NCCC1CC1)c1ccc(N2CCN(C(=O)Cc3ccccc3C(F)(F)F)CC2)nn1` [6-{4-[2-(2-TRIFLUOROMETHYLPHENYL)ACETYL]PIPERAZIN-1-YL}PYRIDAZINE-3-CARBOXYLIC ACID (2-CYCLOPROPYLETHYL)AMIDE] is lower in “Mouse Microsome 10% remaining @ 10 μM” value: 49% for the first, 10% for the second.

First: O=C(NCCC1CC1)c1ccc(N2CCN(Cc3cc(Cl)ccc3C(F)(F)F)CC2)nn1 [6-[4-(5-CHLORO-2-TRIFLUOROMETHYLBENZYL)PIPERAZIN-1-YL]PYRIDAZINE-3-CARBOXYLIC ACID (2-CYCLOPROPYLETHYL)AMIDE]
Second: O=C(NCCC1CC1)c1ccc(N2CCN(Cc3cc(F)ccc3C(F)(F)F)CC2)nn1 [6-[4-(5-FLUORO-2-TRIFLUOROMETHYLBENZYL)PIPERAZIN-1-YL]PYRIDAZINE-3-CARBOXYLIC ACID (2-CYCLOPROPYLETHYL)AMIDE]
The “Mouse Microsome 10% remaining @ 10 μM” value of the first is higher: 7% for the first, 3% for the second.

Compared with `CC(c1ccccc1C(F)(F)F)N1CCN(c2ccc(C(=O)NCCC3CC3)nn2)CC1.Cl` (stereo not shown) [6-{4-[1-(2-TRIFLUOROMETHYLPHENYL)ETHYL]PIPERAZIN-1-YL}-PYRIDAZINE-3-CARBOXYLIC ACID (2-CYCLOPROPYLETHYL)AMIDE HYDROCHLORIDE], `O=C(NCCC1CC1)c1ccc(N2CCN(C(=O)c3ccoc3C(F)(F)F)CC2)nn1` [6-[4-(2-TRIFLUOROMETHYLFURAN-3-CARBONYL)PIPERAZIN-1-YL]PYRIDAZINE-3-CARBOXYLIC ACID (2-CYCLOPROPYLETHYL)AMIDE] is lower in “Mouse Microsome 10% remaining @ 10 μM” value: 24% for the first, 7% for the second.

First: O=C(Nc1ccc(N2CCN(C(=O)c3ccccc3C(F)(F)F)CC2)nn1)Nc1ccccc1F [1-(2-FLUOROPHENYL)-3-{6-[4-(2-TRIFLUOROMETHYLBENZOYL)PIPERAZIN-1-YL]-PYRIDAZIN-3-YL}UREA]
Second: CC(NC(=O)Nc1ccc(N2CCN(C(=O)c3ccccc3C(F)(F)F)CC2)nn1)c1ccc(F)cc1 (stereo not shown) [1-[1-(4-Fluorophenyl)ethyl]-3-{6-[4-(2-trifluoromethylbenzoyl)piperazin-1-yl]pyridazin-3-yl}urea]
The “Mouse Microsome 10% remaining @ 10 μM” value of the first is higher: 73% for the first, 45% for the second.

Going from `O=C(NCCCC1CC1)c1ccc(N2CCN(Cc3cc(F)ccc3C(F)(F)F)CC2)nn1` [6-[4-(5-FLUORO-2-TRIFLUOROMETHYLBENZYL)PIPERAZIN-1-YL]PYRIDAZINE-3-CARBOXYLIC ACID (3-CYCLOPROPYLPROPYL)AMIDE] to `CC(C)CCNC(=O)c1ccc(N2CCN(C(=O)c3nnn(Cc4ccccc4)c3C(F)(F)F)CC2)nn1` [6-[4-(1-BENZYL-5-TRIFLUOROMETHYL-1H-[1,2,3]TRIAZOLE-4-CARBONYL)-PIPERAZIN-1-YL]PYRIDAZINE-3-CARBOXYLIC ACID (3-METHYLBUTYL)AMIDE], the “Mouse Microsome 10% remaining @ 10 μM” value rises from 8% to 61%.

Compared with `CCCCNC(=O)Nc1ccc(N2CCN(C(=O)c3ccccc3C(F)(F)F)CC2)nn1` [1-BUTYL-3-{6-[4-(2-TRIFLUOROMETHYLBENZOYL)PIPERAZIN-1-YL]PYRIDAZIN-3-YL}UREA], `CCCCCNC(=O)Nc1ccc(N2CCN(C(=O)c3ccccc3C(F)(F)F)CC2)nn1` [1-PENTYL-3-{6-[4-(2-TRIFLUOROMETHYLBENZOYL)PIPERAZIN-1-YL]PYRIDAZIN-3-YL}UREA] is lower in “Mouse Microsome 10% remaining @ 10 μM” value: 13% for the first, 6% for the second.

Compared with `CC(C)CCNC(=O)c1ccc(N2CCN(C(=O)N3CCN(C)CC3)CC2)nn1` [6-[4-(4-METHYLPIPERAZINE-1-CARBONYL)PIPERAZIN-1-YL]PYRIDAZIN E-3-CARBOXYLIC ACID (3-METHYLBUTYL)AMIDE], `CC(C)CCNC(=O)c1ccc(N2CCN(C(=O)c3cnn(C)c3C(F)(F)F)CC2)nn1` [6-[4-(1-METHYL-5-TRIFLUOROMETHYL-1H-PYRAZOLE-4-CARBONYL)PIPERAZIN-1-YL]-PYRIDAZINE-3-CARBOXYLIC ACID (3-METHYLBUTYL)AMIDE] is lower in “Mouse Microsome 10% remaining @ 10 μM” value: 29% for the first, 15% for the second.

Going from `COc1ccc(CCNC(=O)c2ccc(N3CCN(C(=O)c4ccccc4C(F)(F)F)CC3)nn2)cc1` [6-[4-(2-TRIFLUOROMETHYLBENZOYL)PIPERAZIN-1-YL]PYRIDAZINE-3-CARBOXYLIC ACID [2-(4-METHOXYPHENYL)ETHYL]AMIDE] to `CCOC(=O)CCNC(=O)Nc1ccc(N2CCN(C(=O)c3ccccc3C(F)(F)F)CC2)nn1` [3-(3-{6-[4-(2-TRIFLUOROMETHYLBENZOYL)PIPERAZIN-1-YL]-PYRIDAZIN-3-YL}-UREIDO)PROPIONIC ACID ETHYL ESTER], the “Mouse Microsome 10% remaining @ 10 μM” value rises from 7% to 18%.

Going from `CC(C)CCNC(=O)c1ccc(N2CCN(C(=O)c3c(C(F)(F)F)nnn3Cc3ccccc3)CC2)nn1` [6-[4-(3-BENZYL-5-TRIFLUOROMETHYL-3H-[1,2,3]TRIAZOLE-4-CARBONYL)PIPERAZIN-1-YL]PYRIDAZINE-3-CARBOXYLIC ACID (3-METHYLBUTYL)AMIDE] to `CC(C)CCNC(=O)c1ccc(N2CCN(C(=O)c3ccccc3N)CC2)nn1` [6-[4-(2-AMINOBENZOYL)PIPERAZIN-1-YL]PYRIDAZINE-3-CARBOXYLIC ACID (3-METHYLBUTYL)AMIDE], the “Mouse Microsome 10% remaining @ 10 μM” value falls from 61% to 23%.

In the case of `CC(C)CCNC(=O)c1ccc(N2CCN(C(=O)c3ccccc3[N+](=O)[O-])CC2)nn1` [6-[4-(2-NITROBENZOYL)PIPERAZIN-1-YL]PYRIDAZINE-3-CARBOXYLIC ACID (3-METHYLBUTYL)AMIDE], the “Mouse Microsome 10% remaining @ 10 μM” value is reported as 8%.
